Laboratory results as given in patent US10392368B2, “Pyrazolo and triazolo bicyclic compounds as JAK kinase inhibitors” (THERAVANCE BIOPHARMA R&D IP, LLC, priority 2017, dated 2019).

Columns and labels:
JAK3 = molecular target: T1, JAK3 (Homo sapiens, UniProt P52333); test: Biochemical JAK3 kinase assay (LanthaScreen); design: GST; purchased Life Technologies; details: for JAK3 (pKi)-JAK1 (pKi): selectivity JAK3 over JAK1, difference of pKi; for Ki: read-out: JAK 3 (pKi) (converted)
T1 sequence (P52333 1-1124): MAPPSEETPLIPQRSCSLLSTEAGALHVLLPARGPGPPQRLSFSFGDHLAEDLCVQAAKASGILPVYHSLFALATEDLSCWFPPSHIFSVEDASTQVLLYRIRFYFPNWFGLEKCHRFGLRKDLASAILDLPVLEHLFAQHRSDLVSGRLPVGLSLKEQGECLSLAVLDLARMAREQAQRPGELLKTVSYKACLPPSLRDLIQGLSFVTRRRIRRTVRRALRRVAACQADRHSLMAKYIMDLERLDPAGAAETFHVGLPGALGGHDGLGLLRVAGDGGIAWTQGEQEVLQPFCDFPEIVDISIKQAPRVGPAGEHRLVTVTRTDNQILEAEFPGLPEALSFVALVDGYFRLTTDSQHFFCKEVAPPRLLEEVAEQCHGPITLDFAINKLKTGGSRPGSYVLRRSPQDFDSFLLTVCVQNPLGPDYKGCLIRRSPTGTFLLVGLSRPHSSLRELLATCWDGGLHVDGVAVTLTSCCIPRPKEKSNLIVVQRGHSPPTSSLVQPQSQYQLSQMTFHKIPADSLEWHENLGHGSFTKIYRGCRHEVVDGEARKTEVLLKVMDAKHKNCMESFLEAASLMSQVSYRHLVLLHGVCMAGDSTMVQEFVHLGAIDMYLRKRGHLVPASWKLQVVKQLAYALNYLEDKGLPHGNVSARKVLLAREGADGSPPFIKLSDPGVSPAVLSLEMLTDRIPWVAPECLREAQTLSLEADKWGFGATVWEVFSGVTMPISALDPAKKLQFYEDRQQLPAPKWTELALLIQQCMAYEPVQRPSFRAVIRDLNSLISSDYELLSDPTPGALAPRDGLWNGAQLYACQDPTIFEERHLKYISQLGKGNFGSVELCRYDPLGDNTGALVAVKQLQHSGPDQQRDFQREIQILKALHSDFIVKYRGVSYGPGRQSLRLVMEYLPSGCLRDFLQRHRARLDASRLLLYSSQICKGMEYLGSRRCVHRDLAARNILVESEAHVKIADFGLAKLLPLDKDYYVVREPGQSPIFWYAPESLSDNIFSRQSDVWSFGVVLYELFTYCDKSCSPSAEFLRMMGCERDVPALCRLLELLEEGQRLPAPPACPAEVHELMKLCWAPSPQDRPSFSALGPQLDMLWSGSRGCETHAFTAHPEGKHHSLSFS
Outline: (§1)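 GST-tagged JAK enzyme and GFP-STAT1 peptide preincubated with compound 1 h, then ATP added; 1 h kinase reaction at ambient temperature, pH 7.5 HEPES/MgCl2 buffer, 1% DMSO. Tb-anti-pSTAT1 (pTyr701) TR-FRET, 520/495 nm ratio; IC50 from 4-parameter fit, converted to pKi via Cheng-Prusoff.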

JAK1 = molecular target: T2, JAK1 (Homo sapiens, UniProt P23458); test: Biochemical JAK1 kinase assay (LanthaScreen); details: for Ki: read-out: JAK 1 (pKi) (converted)
T2 construct: GST; purchased Life Technologies
Outline: as §1

[1] = tested on: IL-2 stimulated pSTAT5 in Tall-1 T cells; test: Cellular JAK3 potency assay: inhibition of IL-2 stimulated pSTAT5 in Tall-1 T cells; type: cell-based, human; details: for Tall-1 (pIC50): IL-2 stimulated pSTAT5, Tall-1 T cells; for IC50: Homo sapiens, TALL-1, IL-2 stimulated pSTAT5, Tall-1 T cells, read-out: Tall-1 (pIC50) (converted)
Outline: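 Tall-1 human T cells (45,000/well) in phenol red-free DMEM with 10% FBS were preincubated with compound 1 h at 37 °C, then stimulated with IL-2 (final 300 ng/ml) for 30 min. Lysate pSTAT5 read by AlphaLisa; IC50 from inhibition curves, reported as pIC50 (mean±SD).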

T2 sequence (P23458 whole entry): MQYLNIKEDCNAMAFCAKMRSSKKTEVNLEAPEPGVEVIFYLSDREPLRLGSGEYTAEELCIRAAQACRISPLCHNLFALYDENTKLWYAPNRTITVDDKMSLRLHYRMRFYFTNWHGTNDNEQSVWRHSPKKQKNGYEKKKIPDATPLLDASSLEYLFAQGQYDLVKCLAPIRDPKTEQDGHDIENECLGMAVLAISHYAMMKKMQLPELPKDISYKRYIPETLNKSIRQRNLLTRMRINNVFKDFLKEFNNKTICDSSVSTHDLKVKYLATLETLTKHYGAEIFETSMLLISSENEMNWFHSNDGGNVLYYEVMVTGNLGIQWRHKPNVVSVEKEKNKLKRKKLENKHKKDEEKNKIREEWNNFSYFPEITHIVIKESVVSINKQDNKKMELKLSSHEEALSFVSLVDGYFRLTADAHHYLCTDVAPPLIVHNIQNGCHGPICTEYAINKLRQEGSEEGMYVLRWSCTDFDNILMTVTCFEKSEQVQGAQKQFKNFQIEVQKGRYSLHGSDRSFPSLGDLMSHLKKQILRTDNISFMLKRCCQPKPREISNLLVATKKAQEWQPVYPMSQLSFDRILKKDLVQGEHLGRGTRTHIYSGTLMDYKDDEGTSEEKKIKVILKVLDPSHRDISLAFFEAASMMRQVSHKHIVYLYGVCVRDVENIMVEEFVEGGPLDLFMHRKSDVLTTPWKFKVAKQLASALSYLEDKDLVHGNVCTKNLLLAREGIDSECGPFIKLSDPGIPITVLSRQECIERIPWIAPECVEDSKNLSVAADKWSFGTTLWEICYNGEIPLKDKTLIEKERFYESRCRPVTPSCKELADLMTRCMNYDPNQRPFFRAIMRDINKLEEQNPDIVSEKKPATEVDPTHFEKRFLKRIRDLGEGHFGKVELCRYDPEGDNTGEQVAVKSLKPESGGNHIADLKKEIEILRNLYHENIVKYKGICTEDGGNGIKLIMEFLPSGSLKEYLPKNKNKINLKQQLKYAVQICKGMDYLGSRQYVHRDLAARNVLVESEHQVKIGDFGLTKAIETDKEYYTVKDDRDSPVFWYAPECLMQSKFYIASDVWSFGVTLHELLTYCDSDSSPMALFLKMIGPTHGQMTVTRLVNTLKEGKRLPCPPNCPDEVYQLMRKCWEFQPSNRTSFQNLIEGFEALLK

Row | Structure (SMILES) | JAK 3 (pKi) (JAK3) | JAK3 (pKi)-JAK1 (pKi) (JAK3) | JAK 1 (pKi) (JAK1) | Tall-1 (pIC50) [1] | Ki (JAK3) [nM] | Ki (JAK1) [nM] | IC50 [1] [nM]
1 | CN(C)CC=CC(=O)N1C2CCC1CC(Oc1cc(-c3ccc(O)c(F)c3)cc3[nH]ncc13)C2 (stereo not drawn) [Compound 9-5] | B (a pKi value between 9 and 10 (Ki between 1 nM and 0.1 nM)) | C (a value of 1.8 to 2.3) | D (a pKi value between 7 and 8 (Ki between 100 nM and 10 nM)) | C (a pIC50 value between 6 and 6.7 (IC50 between 1 μM and 200 nM)) | – | – | –
2 | C=CC(=O)N1C2CCC1CC(Oc1nc(-c3ccc(O)cc3)cc3[nH]ncc13)C2 (stereo not drawn) [Compound 9-6] | B (a pKi value between 9 and 10 (Ki between 1 nM and 0.1 nM)) | A (a value of 3 or above) | E (a pKi value of 7 or below (Ki of 100 nM or above)) | A (a pIC50 value≥7.5 (IC50≤32 nM)) | – | – | –
3 | C=CC(=O)N1C2CCC1CC(Oc1nc(-c3ccc(O)c(Cl)c3)cc3[nH]ncc13)C2 (stereo not drawn) [Compound 9-7] | A (a pKi value≥10 (Ki≤0.1 nM)) | A (a value of 3 or above) | E (a pKi value of 7 or below (Ki of 100 nM or above)) | B (a pIC50 value between 6.7 (included) and 7.5 (IC50 between 200 nM and 32 nM)) | – | – | –
4 | CN(C)CC=CC(=O)N1C2CCC1CC(Oc1nc(-c3ccc(O)c(Cl)c3)cc3[nH]ncc13)C2 (stereo not drawn) [Compound 9-8] | B (a pKi value between 9 and 10 (Ki between 1 nM and 0.1 nM)) | C (a value of 1.8 to 2.3) | D (a pKi value between 7 and 8 (Ki between 100 nM and 10 nM)) | C (a pIC50 value between 6 and 6.7 (IC50 between 1 μM and 200 nM)) | – | – | –
5 | C=CC(=O)N1C2CCC1CC(Oc1nc(-c3ccc(O)c(F)c3)cc3[nH]ncc13)C2 (stereo not drawn) [Compound 9-10] | B (a pKi value between 9 and 10 (Ki between 1 nM and 0.1 nM)) | A (a value of 3 or above) | E (a pKi value of 7 or below (Ki of 100 nM or above)) | A (a pIC50 value≥7.5 (IC50≤32 nM)) | – | – | –
6 | C=CC(=O)N1C2CCC1CC(Oc1nc(-c3ccc(O)cc3)nc3[nH]ncc13)C2 (stereo not drawn) [Compound 9-11] | A (a pKi value≥10 (Ki≤0.1 nM)) | A (a value of 3 or above) | E (a pKi value of 7 or below (Ki of 100 nM or above)) | B (a pIC50 value between 6.7 (included) and 7.5 (IC50 between 200 nM and 32 nM)) | – | – | –
7 | CN(C)CC=CC(=O)N1C2CCC1CC(Oc1cc(-c3ccc(O)cc3)cc3[nH]ncc13)C2 (stereo not drawn) [Compound 10-1] | A (a pKi value≥10 (Ki≤0.1 nM)) | B (a value of 2.3 to 3) | D (a pKi value between 7 and 8 (Ki between 100 nM and 10 nM)) | B (a pIC50 value between 6.7 (included) and 7.5 (IC50 between 200 nM and 32 nM)) | – | – | –
8 | CN(C)CC=CC(=O)N1C2CCC1CC(Oc1cc(-c3ccc(O)c(Cl)c3)cc3[nH]ncc13)C2 (stereo not drawn) [Compound 10-3] | B (a pKi value between 9 and 10 (Ki between 1 nM and 0.1 nM)) | B (a value of 2.3 to 3) | D (a pKi value between 7 and 8 (Ki between 100 nM and 10 nM)) | B (a pIC50 value between 6.7 (included) and 7.5 (IC50 between 200 nM and 32 nM)) | – | – | –
9 | CN(C)CC=CC(=O)N1C2CCC1CC(Oc1cc(-c3ccc(O)c(F)c3)cc3[nH]ncc13)C2 (stereo not drawn) [Compound 10-5] | B (a pKi value between 9 and 10 (Ki between 1 nM and 0.1 nM)) | C (a value of 1.8 to 2.3) | D (a pKi value between 7 and 8 (Ki between 100 nM and 10 nM)) | B (a pIC50 value between 6.7 (included) and 7.5 (IC50 between 200 nM and 32 nM)) | – | – | –
10 | C=CC(=O)N1C2CCC1CC(Oc1cc(-c3ccc(O)c(F)c3)cc3[nH]ncc13)C2 (stereo not drawn) [Compound 10-6] | B (a pKi value between 9 and 10 (Ki between 1 nM and 0.1 nM)) | B (a value of 2.3 to 3) | D (a pKi value between 7 and 8 (Ki between 100 nM and 10 nM)) | A (a pIC50 value≥7.5 (IC50≤32 nM)) | – | – | –
11 | C=CC(=O)N1CCO[C@H](C(=O)Nc2cc(-c3ccc(O)cc3)cc3[nH]ncc23)C1 [Compound 11-1] | B (a pKi value between 9 and 10 (Ki between 1 nM and 0.1 nM)) | A (a value of 3 or above) | E (a pKi value of 7 or below (Ki of 100 nM or above)) | A (a pIC50 value≥7.5 (IC50≤32 nM)) | – | – | –
12 | CN(C)C/C=C/C(=O)N1CCO[C@H](C(=O)Nc2cc(-c3ccc(O)cc3)cc3[nH]ncc23)C1 [Compound 11-2] | B (a pKi value between 9 and 10 (Ki between 1 nM and 0.1 nM)) | A (a value of 3 or above) | E (a pKi value of 7 or below (Ki of 100 nM or above)) | C (a pIC50 value between 6 and 6.7 (IC50 between 1 μM and 200 nM)) | – | – | –
13 | C=CC(=O)N1CC[C@@H](Sc2cc(-c3ccc(O)cc3)cc3[nH]ncc23)C1 [Compound 12-2] | B (a pKi value between 9 and 10 (Ki between 1 nM and 0.1 nM)) | B (a value of 2.3 to 3) | E (a pKi value of 7 or below (Ki of 100 nM or above)) | B (a pIC50 value between 6.7 (included) and 7.5 (IC50 between 200 nM and 32 nM)) | – | – | –
14 | CN(C)C/C=C/C(=O)N1CC[C@@H](Sc2cc(-c3ccc(O)cc3)cc3[nH]ncc23)C1 [Compound 12-3] | – | B (a value of 2.3 to 3) | – | – | 0.1 to 1 | 10 to 100 | 200 to 1000
15 | CN(C)C/C=C/C(=O)N1CCC(Sc2cc(-c3ccc(O)cc3)cc3[nH]ncc23)CC1 [Compound 12-5] | – | B (a value of 2.3 to 3) | – | – | 0.1 to 1 | > 100 | 31.6 to 200
16 | C=CC(=O)N1CCC[C@H](Sc2cc(-c3ccc(O)cc3)cc3[nH]ncc23)C1 [Compound 12-6] | – | B (a value of 2.3 to 3) | – | – | 0.1 to 1 | 10 to 100 | 31.6 to 200
17 | CN(C)C/C=C/C(=O)N1CCC[C@H](Sc2cc(-c3ccc(O)cc3)cc3[nH]ncc23)C1 [Compound 12-7] | – | C (a value of 1.8 to 2.3) | – | – | 0.1 to 1 | 10 to 100 | 200 to 1000
18 | C=CC(=O)N1CCC(S(=O)(=O)c2cc(-c3ccc(O)cc3)cc3[nH]ncc23)CC1 [Compound 12-8] | – | A (a value of 3 or above) | – | – | 0.1 to 1 | > 100 | 200 to 1000
19 | C=CC(=O)N1CCC[C@H](S(=O)(=O)c2cc(-c3ccc(O)cc3)cc3[nH]ncc23)C1 [Compound 12-9] | – | A (a value of 3 or above) | – | – | 0.1 to 1 | > 100 | 200 to 1000
20 | CN(C)C/C=C/C(=O)N1CCC(Cc2cc(-c3ccc(O)cc3)cc3[nH]ncc23)CC1 [Compound 12-14] | – | C (a value of 1.8 to 2.3) | – | – | 0.1 to 1 | > 100 | 200 to 1000
21 | C=CC(=O)N1CC[C@H](Nc2cc(-c3ccc(O)cc3)cc3[nH]ncc23)C[C@@H]1C [Compound 12-15] | – | B (a value of 2.3 to 3) | – | – | 0.1 to 1 | > 100 | 31.6 to 200
22 | C=CC(=O)N1CC[C@@H](Nc2cc(-c3ccc(O)cc3)cc3[nH]ncc23)C1 [Compound 12-18] | – | B (a value of 2.3 to 3) | – | – | < 0.1 | 10 to 100 | 31.6 to 200
23 | CN(C)C/C=C/C(=O)N1CC[C@@H](COc2cc(-c3ccc(O)cc3)cc3[nH]ncc23)C1 [Compound 12-19] | – | A (a value of 3 or above) | – | – | < 0.1 | > 100 | 200 to 1000
24 | C=CC(=O)N1CC2(CC(Oc3cc(-c4ccc(O)cc4)cc4[nH]ncc34)C2)C1 [Compound 12-21] | – | B (a value of 2.3 to 3) | – | – | 0.1 to 1 | > 100 | < 31.6
